Source: patent publication US20250282742A1, “BENZOFURAN DERIVATIVES FOR TARGETING AUTOPHAGY” (Automera PTE. LTD, priority 2024, published 2025)

Test system: p62 puncta in HeLa cells
Experiment: p62 puncta assay (immunocytochemistry and imaging, EVOS M7000 or Operetta CLS)
Type: cell-based
Details: Homo sapiens, fold change in p62 puncta levels relative to DMSO control, 24 hr
Experimental: HeLa cells were seeded in coated 96-well plates (10,000 cells) and allowed to adhere overnight. After 24 hours of treatment with either vehicle (DMSO) or test compounds, the media was discarded, and cells were rinsed with ice-cold 1×PBS before fixation by 4% formaldehyde or paraformaldehyde for 20 min. Cells were then washed with 1×PBS and permeabilized with 0.1% Triton X-100 in PBS for 20 min and blocked with Blocking Buffer in PBS for 1 hour. The cells were incubated thereafter for 1 hour with anti-p62 primary antibody in Blocking Buffer, followed by incubation with secondary antibody for 1 hour. DAPI dye was used to visualize nuclei of fixed cells. The blocking buffer used were 5% Fetal Bovine Serum (FBS, ThermoFIsher Scientific, 10270106) and Li-cor Intercept (PBS) Blocking Buffer (Li-cor, 927-70001). The primary antibody used was mouse anti-p62 primary antibody (Novus Biologicals, H00008878-MO1). The secondary antibodies used were goat anti-mouse Alexa Fluor Plus 488 secondary antibody (Invitrogen, GOXMS) and goat anti-mouse Alexa Fluor 488 secondary antibody (Invitrogen, A-11029). The DAPI dyes used were DAPI dye (Invitrogen, 62248) and DAPI dye (Invitrogen, D1306).
For the EVOS M7000 System, cells were imaged on the EVOS M7000 microscope using a 20× air objective (Nikon, N.A 0.45). DAPI and p62 channels were illuminated with LED light cubes using integrated hard-coated filter sets for DAPI (357/447 nm) and GFP (470/525 nm) respectively. Images were analysed for p62 puncta count on the Celeste 6.0 software.
For the Operetta CLS System, cells were imaged on the Operetta CLS using a 63× water objective on the DAPI and Alexa 488 channels. Images were analysed for p62 puncta count on the Harmony 5.1 software.
HeLa cells were treated with compounds for 24 hours to evaluate the effect of these compounds on p62 puncta activity. The resulting changes in levels of p62 puncta were assessed by imaging, either on the EVOS M7000 or Operetta CLS systems as described in experimental procedures. The fold change of p62 puncta levels induced by compound treatment relative to vehicle control (DMSO) was determined and summarized in Table 10.

| Compound | fold induction at 5 µM |
| --- | --- |
| CC(C)(C)OC(=O)CCCCOCCNCc1ccc2cc(CCc3ccc(F)cc3)oc2c1 [compound 137] | < 2 |
| CC(C)(C)OC(=O)N1CCC(OCCOCCNCc2ccc3cc(CCc4ccc(F)cc4)oc3c2)CC1 [compound 90] | > 2 |
| CC(C)NCC(O)COc1ccc2cc(-c3ccccc3)oc2c1 (stereo not drawn) [compound 78] | > 2 |
| CO[C@H]1CCCN(Cc2ccc3cc(-c4ccccc4)oc3c2)C1 [compound 110] | < 2 |
| CC(C)(C)OC(=O)Nc1cccc(COCCNCc2ccc3cc(CCc4ccc(F)cc4)oc3c2)c1 [compound 153] | > 2 |
| COC(=O)C1(COCCNCc2ccc3cc(CCc4ccc(F)cc4)oc3c2)COC1 [compound 146] | < 2 |
| CNCCCOCCOCCNCc1ccc2cc(-c3ccccc3)oc2c1 [compound 120] | > 2 |
| CC(C)(C)OC(=O)N1CC(OCCNCc2ccc3cc(CCc4ccc(F)cc4)oc3c2)C1 [compound 158] | > 2 |
| CC(C)(C)OC(=O)c1ccc(COCCNCc2ccc3cc(CCc4ccc(F)cc4)oc3c2)cc1 [compound 134] | > 2 |
| CC(C)(C)OC(=O)CCOCCOCCNCc1ccc2cc(CCc3ccc(F)cc3)oc2c1 [compound 127] | > 2 |
| C#CCCCCCCCCOCCNCc1ccc2cc(CCc3ccc(F)cc3)oc2c1 [compound 161] | > 2 |
| CC(C)(C)OC(=O)COCCNCc1ccc2cc(CCc3ccc(F)cc3)oc2c1 [compound 131] | > 2 |
| CC(C)(C)OC(=O)N[C@H]1CC[C@H](COCCNCc2ccc3cc(CCc4ccc(F)cc4)oc3c2)CC1 [compound 168] | > 2 |
| COc1ccc(-c2cc3ccc(CNCCO)cc3o2)cc1 [compound 76] | > 2 |
| CC(C)(C)OC(=O)CCCCCCCCOCCNCc1ccc2cc(CCc3ccc(F)cc3)oc2c1 [compound 139] | < 2 |
| CC(C)(C)OC(=O)NC[C@H]1CC[C@H](COCCNCc2ccc3cc(CCc4ccc(F)cc4)oc3c2)CC1 [compound 167] | > 2 |
| CC(C)(C)OC(=O)COCCCOCCNCc1ccc2cc(CCc3ccc(F)cc3)oc2c1 [compound 128] | > 2 |
| C#CCCOCCOCCNCC(O)COc1ccc2cc(Cc3ccccc3)oc2c1 (stereo not drawn) [compound 98, 1-((2-benzylbenzofuran-6-yl)oxy)-3-((2-(2-(but-3-yn-1-yloxy)ethoxy)ethyl)amino)propan-2-ol] | > 2 |
| C#CCCCCCCOCCNCc1ccc2cc(CCc3ccc(F)cc3)oc2c1 [compound 141] | > 2 |
| CC(C)(C)OC(=O)N1CCC(COCCOCCNCc2ccc3cc(CCc4ccc(F)cc4)oc3c2)CC1 [compound 165] | > 2 |
| C#CCOCCOCCNCc1ccc2cc(CCc3ccc(F)cc3)oc2c1 [compound 129] | > 2 |
| CC(C)(C)OC(=O)N1CCC(OCCNCc2ccc3cc(CCc4ccc(F)cc4)oc3c2)C1 (stereo not drawn) [compound 157] | > 2 |

| Compound | fold induction at 5 µM |
| --- | --- |
| CC(C)(C)OC(=O)NC1(COCCNCc2ccc3cc(CCc4ccc(F)cc4)oc3c2)CC1 [compound 156] | > 2 |
| CC(C)(C)OC(=O)NCCCCCOCCNCc1ccc2cc(CCc3ccc(F)cc3)oc2c1 [compound 148] | < 2 |
| COC(=O)c1cccc(COCCNCc2ccc3cc(CCc4ccc(F)cc4)oc3c2)c1 [compound 135] | < 2 |
| CC(C)(C)OC(=O)NCC1CC(COCCNCc2ccc3cc(CCc4ccc(F)cc4)oc3c2)C1 (stereo not drawn) [compound 163] | > 2 |
| CC(C)(C)OC(=O)NC1CCN(CCOCCNCc2ccc3cc(CCc4ccc(F)cc4)oc3c2)CC1 [compound 166] | > 2 |
| C#CCCOCCOCCOCCNCc1ccc2cc(-c3ccccc3)oc2c1 [compound 94] | > 2 |
| COC1CN(Cc2ccc3cc(-c4ccccc4)oc3c2)C1 [compound 108] | > 2 |
| C#CCOCCOCCOCCNCc1ccc2cc(CCc3ccc(F)cc3)oc2c1 [compound 126] | > 2 |
| C#CCCOCCNCc1ccc2cc(CCc3ccc(F)cc3)oc2c1 [compound 133] | > 2 |
| CC(C)(C)OC(=O)CCCCCOCCNCc1ccc2cc(CCc3ccc(F)cc3)oc2c1 [compound 140] | < 2 |
| OCCNCc1ccc2cc(-c3ccccc3Cl)oc2c1 [compound 72] | > 2 |
| C#CCCOCCOCCOCCNCc1ccc2cc(Cc3ccc(Cl)cc3)oc2c1 [compound 96] | > 2 |
| Fc1ccc(CCc2cc3ccc(CNCCOCCCCl)cc3o2)cc1 [compound 136] | > 2 |
| CC(C)(C)OC(=O)Nc1ccc(COCCNCc2ccc3cc(CCc4ccc(F)cc4)oc3c2)cc1 [compound 151] | > 2 |
| CC(C)(C)OC(=O)NCCCOCCNCc1ccc2cc(CCc3ccc(F)cc3)oc2c1 [compound 154] | > 2 |
| CC(C)(C)OC(=O)N1CC(COCCNCc2ccc3cc(CCc4ccc(F)cc4)oc3c2)C1 [compound 155] | > 2 |
| CC(C)(C)OC(=O)NCCOCCOCCNCc1ccc2cc(CCc3ccc(F)cc3)oc2c1 [compound 124] | > 2 |
| CC(C)(C)OC(=O)NCCOCCOCCOCCNCc1ccc2cc(CCc3ccc(F)cc3)oc2c1 [compound 125] | > 2 |
| COCCNCc1ccc2cc(-c3ccccc3)oc2c1 [compound 105] | > 2 |
| CC(C)(C)OC(=O)CCCOCCNCc1ccc2cc(CCc3ccc(F)cc3)oc2c1 [compound 145] | < 2 |
| CO[C@@H]1CCCN(Cc2ccc3cc(-c4ccccc4)oc3c2)C1 [compound 109] | < 2 |
| CC(C)NCC(O)COc1ccc2cc(CCc3ccc(F)cc3)oc2c1 (stereo not drawn) [compound 80] | > 2 |

| Compound | fold induction at 5 µM |
| --- | --- |
| COC(=O)c1ccc(N2CCC(COCCNCc3ccc4cc(CCc5ccc(F)cc5)oc4c3)CC2)cc1 [compound 162] | > 2 |
| C#CCCOCCOCCNCc1ccc2cc(CCc3ccc(F)cc3)oc2c1 [compound 83, 2-(2-(but-3-yn-1-yloxy)ethoxy)-N-((2-(4-fluorophenethyl)benzofuran-6-yl)methyl)ethan-1-amine] | > 2 |
| C#CCCOCCOCCOCCNCc1ccc2cc(CCc3ccc(F)cc3)oc2c1 [compound 84] | > 2 |
| CC(C)(C)OC(=O)N1CCC(COCCNCc2ccc3cc(CCc4ccc(F)cc4)oc3c2)CC1 [compound 123] | > 2 |
| COC1CN(Cc2ccc3cc(-c4cccnc4)oc3c2)C1 [compound 112] | < 2 |
| CC(C)(C)OC(=O)NCCOCCNCc1ccc2cc(CCc3ccc(F)cc3)oc2c1 [compound 122] | > 2 |
| OCCNCc1ccc2nc(-c3ccccc3)sc2c1 [compound 113] | > 2 |
| COC(=O)c1ccc(OCCOCCNCc2ccc3cc(CCc4ccc(F)cc4)oc3c2)cc1 [compound 159] | > 2 |
| OCCNCc1ccc2nc(-c3ccccc3)oc2c1 [compound 106] | > 2 |
| CNCCOCCOCCOCCNCc1ccc2cc(CCc3ccc(F)cc3)oc2c1 [compound 87] | > 2 |
| C#CCCCCCOCCNCc1ccc2cc(CCc3ccc(F)cc3)oc2c1 [compound 138] | > 2 |
| CC(C)(C)OC(=O)NCCCCCCCCOCCNCc1ccc2cc(CCc3ccc(F)cc3)oc2c1 [compound 149] | > 2 |
| CNC(=O)CCOCCOCCNCc1ccc2cc(-c3ccccc3)oc2c1 [compound 121] | < 2 |
| OCCNCc1ccc2cc(CN3CCCCC3)oc2c1 [compound 25] | < 2 |
| CC(C)NCCOCc1ccc2cc(CCc3ccc(F)cc3)oc2c1 [compound 79] | > 2 |
| CC(C)(C)OC(=O)NCCOCCOCCOCCNCc1ccc2cc(Cc3ccccc3)oc2c1 [compound 82, tert-butyl (1-(2-benzylbenzofuran-6-yl)-5,8,11-trioxa-2-azatridecan-13-yl)carbamate] | < 2 |
| COC1CC(NCc2ccc3cc(-c4ccccc4)oc3c2)C1 (stereo not drawn) [compound 107] | < 2 |
| COC(=O)CCOCCOCCNCc1ccc2cc(-c3ccccc3)oc2c1 [compound 95, methyl 3-(2-(2-(((2-phenylbenzofuran-6-yl)methyl)amino)ethoxy)ethoxy)propanoate] | > 2 |
| COC(=O)CCOCCNCC(O)COc1ccc2cc(Cc3ccccc3)oc2c1 (stereo not drawn) [compound 99] | < 2 |
| OCCNCc1ccc2cc(-c3ccc(Cl)cc3)oc2c1 [compound 74] | > 2 |
| CC(C)(C)OC(=O)N1CCC(CCOCCNCc2ccc3cc(CCc4ccc(F)cc4)oc3c2)CC1 [compound 152] | > 2 |
| COC(=O)CCOCCOCCOCCNCc1ccc2cc(CCc3ccc(F)cc3)oc2c1 [compound 160] | < 2 |
